SMILES	melting point [°C]
COc1cc2oc(=O)c(C)c(C)c2cc1OCCN1CCN(c2cccc3cccnc23)CC1 [Example 4, 7-methoxy-3,4-dimethyl-6-[2-(4-quinolin-8-ylpiperazin-1-yl)ethoxy]chromen-2-one]	164 to 165
COc1cc2oc(=O)c(C)c(C)c2cc1OCCN1CCN(c2cccc3[nH]ccc23)CC1.Cl.Cl	231 to 237
COc1cc2oc(=O)c(C)c(C)c2cc1OCCN1CCN(c2cccc3[nH]ccc23)CC1 [Example 3, 6-{2-[4-(1H-indol-4-yl)piperazin-1-yl]ethoxy}-7-methoxy-3,4-dimethylchromen-2-one]	201 to 202

Now from value to compound:

melting point [°C]	SMILES
168 to 170	COc1cc2oc(=O)c(C)c(C)c2cc1OCCN1CCN(c2cccc3ccc(C)nc23)CC1 [Example 4, 7-methoxy-3,4-dimethyl-6-{2-[4-(2-methylquinolin-8-yl)piperazin-1-yl]-ethoxy}chromen-2-one]
225 to 228	COc1cc2oc(=O)c(C)c(C)c2cc1OCCCN1CCN(c2cccc3cccnc23)CC1 [Example 5, 7-methoxy-3,4-dimethyl-6-[3-(4-quinolin-8-ylpiperazin-1-yl)propoxy]-chromen-2-one]
193 to 195	COc1cc2oc(=O)c(C)c(C)c2cc1OCCCN1CCN(c2cccc3[nH]ccc23)CC1 [Example 5, 6-{3-[4-(1H-indol-4-yl)piperazin-1-yl]propoxy}-7-methoxy-3,4-dimethyl-chromen-2-one]
